# According to patent publication US20220110888A1, “COMPOSITION FOR THE TREATMENT OF PSORIASIS” (Charlotte's Web, Inc., priority 2020, published 2022):
# Experiment: Systemic exposure to CBD after dermal application
smiles,measurement,value
"C=C(C)[C@@H]1CCC(C)=C[C@H]1c1c(O)cc(CCCCC)cc1O [CBD, cannabidiol]",reach of the bloodstream / systemic circulation,does not reach the bloodstream
